Source: US20180252736A1, “CB2 RECEPTOR INTERNALIZATION” (Arena Pharmaceuticals, Inc., priority 2015, published 2018)
“And” between values parts separate entries of the source, which are not always exact repeats. Identical values can stand only once.

Tests used:
CB1 [1] = molecular target: T1, CB1 (Homo sapiens, UniProt P21554); test: β-arrestin recruitment assay (PathHunter CHO-K1); assay type: cell-based
rat CB1 receptor = rat CB1 receptor (Rattus norvegicus, UniProt P20272); test: β-arrestin recruitment assay (PathHunter CHO-K1); assay type: cell-based
Sequence of rat CB1 receptor (P20272 whole entry): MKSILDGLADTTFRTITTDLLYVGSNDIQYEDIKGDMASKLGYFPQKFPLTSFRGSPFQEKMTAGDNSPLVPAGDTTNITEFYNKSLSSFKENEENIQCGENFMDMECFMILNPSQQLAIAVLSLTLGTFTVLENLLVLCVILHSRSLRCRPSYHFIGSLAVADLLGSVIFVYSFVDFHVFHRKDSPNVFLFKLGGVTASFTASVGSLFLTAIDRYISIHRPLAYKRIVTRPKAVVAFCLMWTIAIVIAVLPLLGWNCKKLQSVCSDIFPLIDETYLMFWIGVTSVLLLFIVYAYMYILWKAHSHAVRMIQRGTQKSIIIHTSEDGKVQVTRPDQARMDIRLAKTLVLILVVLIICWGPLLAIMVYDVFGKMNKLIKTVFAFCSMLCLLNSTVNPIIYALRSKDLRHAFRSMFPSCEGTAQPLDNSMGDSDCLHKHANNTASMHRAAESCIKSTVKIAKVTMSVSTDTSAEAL

mouse CB2 receptor = molecular target: T2, mouse CB2 receptor (Mus musculus, UniProt P47936); test: β-arrestin recruitment assay (PathHunter CHO-K1); assay type: cell-based; settings: for β-arrestin efficacy, mouse CB2: relative to reference agonist
T2 construct: host or cells: PathHunter CHO-K1
T2 sequence (P47936 whole entry): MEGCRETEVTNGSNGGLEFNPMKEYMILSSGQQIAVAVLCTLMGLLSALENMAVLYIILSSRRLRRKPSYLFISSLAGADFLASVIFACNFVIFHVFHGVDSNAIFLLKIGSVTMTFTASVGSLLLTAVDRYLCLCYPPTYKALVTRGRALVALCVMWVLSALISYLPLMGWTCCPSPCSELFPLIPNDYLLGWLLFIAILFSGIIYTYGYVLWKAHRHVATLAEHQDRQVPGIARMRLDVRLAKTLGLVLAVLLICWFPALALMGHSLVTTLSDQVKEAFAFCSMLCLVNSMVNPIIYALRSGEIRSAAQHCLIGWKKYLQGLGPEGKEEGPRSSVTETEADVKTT

mouse CB1 receptor = mouse CB1 receptor (Mus musculus, UniProt P47746); test: β-arrestin recruitment assay (PathHunter CHO-K1); assay type: cell-based
Sequence of mouse CB1 receptor (P47746 whole entry): as the sequence (P20272 whole entry) above, with E95D counted along it

hCB2 [2] = molecular target: T3, hCB2 (Homo sapiens, UniProt P34972); test: CB2 receptor internalization assay (enzyme complementation); assay type: cell-based; settings: for receptor internalization, human CB2 (words): relative to CP55,940
T3 sequence (P34972 whole entry): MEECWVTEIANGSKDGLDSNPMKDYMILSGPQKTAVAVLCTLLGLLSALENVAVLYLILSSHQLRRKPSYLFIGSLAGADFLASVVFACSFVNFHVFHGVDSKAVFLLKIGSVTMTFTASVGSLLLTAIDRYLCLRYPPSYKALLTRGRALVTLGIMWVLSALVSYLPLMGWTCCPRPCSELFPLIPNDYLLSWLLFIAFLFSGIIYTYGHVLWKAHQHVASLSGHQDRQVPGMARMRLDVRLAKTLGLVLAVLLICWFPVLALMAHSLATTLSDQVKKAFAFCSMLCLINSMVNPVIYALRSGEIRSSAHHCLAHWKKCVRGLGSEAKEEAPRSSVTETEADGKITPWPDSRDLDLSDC
Procedure: (§1) Receptor internalization assays for the CB2 receptor were performed using the PathHunter® Total GPCR Internalization system from DiscoverRx (Fremont, Calif.). The assay was performed in CB2-receptor-expressing stable cell lines generated in the PathHunter® U2OS parental cell line.
(§2) Total GPCR internalization assays were performed per the manufacturer's instructions. Briefly, PathHunter® U2OS cells stably expressing the recombinant human or rat CB2 receptor were seeded into 96-well microtiter assay plates (Catalog #3610, Corning Inc., Corning, N.Y.) at a density of 20,000 cells per well in 100 μL growth medium and cultured in a humidified 37° C. incubator overnight. Growth medium was exchanged the following day for 100 μL serum-free medium (OptiMEM), and cells were incubated overnight in a humidified 37° C. incubator. On the day of the assay, test compounds dissolved in DMSO were serially diluted in DMSO and then further diluted in OptiMEM to achieve 11× concentrations in 5.5% DMSO. Aliquots (10 μL) of diluted test compounds were added to the assay plates, which were then incubated in a humidified 37° C. incubator for 3 hours. Lysis/detection reagents (55 μL total) were then added and the plates were incubated for an additional 1 hour at room temperature. Plates were then read on an appropriate plate reader (e.g., EnVision (Perkin Elmer, Waltham, Mass.) or PheraStar (BMG)). Dose-response curves were generated using a minimum of 8 different test concentrations and triplicate determinations were made at each test concentration. Assay performance was monitored by inclusion of a standard CB2 reference agonist such as CP55,940 and agonist internalization efficacies were reported relative to that of the reference agonist.

rat CB2 receptor [3] = molecular target: T4, rat CB2 receptor (Rattus norvegicus, UniProt Q9QZN9); test: as above; assay type: cell-based; settings: relative to CP55,940
T4 sequence (Q9QZN9 1-360): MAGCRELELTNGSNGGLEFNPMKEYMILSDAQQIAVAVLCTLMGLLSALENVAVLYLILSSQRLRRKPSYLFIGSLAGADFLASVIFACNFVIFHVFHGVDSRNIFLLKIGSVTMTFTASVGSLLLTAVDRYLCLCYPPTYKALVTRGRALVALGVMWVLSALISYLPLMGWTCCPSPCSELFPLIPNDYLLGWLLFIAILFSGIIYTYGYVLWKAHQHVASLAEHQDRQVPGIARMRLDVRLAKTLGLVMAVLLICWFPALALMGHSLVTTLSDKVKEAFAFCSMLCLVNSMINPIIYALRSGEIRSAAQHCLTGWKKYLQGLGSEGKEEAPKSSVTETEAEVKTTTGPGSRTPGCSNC
Procedure: as §1, §2

[4] = system: human CB2 receptor versus human CB1 receptor; test: CB2 receptor selectivity (ratio of EC50 values, β-arrestin data); assay type: cell-based
Description: Competition curves were fit to a nonlinear least squares curve fitting program to obtain EC50 values for the β-arrestin data. Selectivity for the CB2 receptor versus the CB1 receptor was obtained by dividing the […].

hCB2 [5] = molecular target: T3, hCB2; settings: reported by Glenmark, cited from earlier work
hCB2 [6] = molecular target: T3, hCB2; test: β-arrestin recruitment assay (PathHunter CHO-K1); assay type: cell-based; design: host or cells: PathHunter CHO-K1; settings: for β-arrestin efficacy compared to CP55,940, human CB2: relative to CP55,940
rat CB2 receptor [7] = molecular target: T4, rat CB2 receptor; test: β-arrestin recruitment assay (PathHunter CHO-K1); assay type: cell-based; design: host or cells: PathHunter CHO-K1; settings: for β-arrestin efficacy compared to CP55,940, rat CB2: relative to CP55,940
hCB2 [8] = molecular target: T3, hCB2; settings: reported by Lilly; cited from earlier work
CB1 [9] = molecular target: T1, CB1; settings: at 100,000 nM; reported by Lilly; cited from earlier work
[10] = system: MIA-induced osteoarthritis in male Sprague Dawley rats; test: Osteoarthritis pain model (MIA); assay type: in vivo, rat; settings: for effect of CB1 antagonist on in vivo efficacy: pain model
Description: Injection of monosodium iodoacetate (MIA) into a joint (J Rheumatol 14:130-1, 1987) inhibits the activity of glyceraldehyde-3-phosphate dehydrogenase in chondrocytes, resulting in disruption of glycolysis and eventually in cell death. The progressive loss of chondrocytes results in histological and morphological changes of the articular cartilage, closely resembling those seen in osteoarthritis patients.
Osteoarthritis was induced in 200 g male Sprague Dawley rats. After brief anesthesia by isoflurane, rats received a single intra-articular injection of MIA (2 mg) (Catalog #19148, Sigma Aldrich, Saint Louis, Mo.) dissolved in 0.9% sterile saline in a 50 μL volume administered through the patella ligament into the joint space of the left knee with a 30 G needle. Following injection, animals were allowed to recover from anesthesia before being returned to the main housing vivarium.
Typically during disease progression, there is an inflammation period of 0-7 days post-intra-articular injection followed by progressive degeneration of the cartilage and subchondral bone from days 14-55. Efficacy studies with a compound described herein took place from day 14 onwards and were performed twice a week with at least three days of wash-out in between each assay. Three different assays can be used to measure pain. Tactile allodynia can be measured via von Frey assay, hind limb paw weight distribution can be monitored using an incapacitance tester (Columbus Instruments, Columbus, Ohio), and hind limb grip strength can be measured using a grip strength meter (Columbus Instruments, Columbus, Ohio). Briefly, the von Frey assay was performed using the standard up/down method with von Frey filaments. Hind paw weight distribution was determined by placing rats in a chamber so that each hind paw rested on a separate force plate of the incapacitance tester. The force exerted by each hind limb (measured in grams) was averaged over a three second period. Three measurements are taken for each rat, and the change in hind paw weight distribution was calculated. Peak hind limb grip force was conducted by recoding the maximum compressive force exerted on the hind limb mesh gauge set on the grip strength meter. During testing, each rat was restrained and the paw of the injected knee was allowed to grip the mesh. The animal was then pulled in an upward motion until their grip was broken. Each rat was tested three times, with the contralateral paw used as a control.
A baseline was established for animals prior to administration of compounds. The MIA-treated groups of rats were then dosed with either vehicle (PEG400, orally), test compound (at 3 mg/kg, 10 mg/kg, and 30 mg/kg, orally), or morphine (3 mg/kg, subcutaneously). The dosing volume was 500 μL. One hour after dosing, von Frey assay, hind limb weight distribution and/or hind limb grip analysis was performed to measure the efficacy of the test compounds.

CB1 [11] = molecular target: T1, CB1; settings: concentrations less than 30 μM; reported by GSK; cited from earlier work

T1 sequence (P21554 whole entry): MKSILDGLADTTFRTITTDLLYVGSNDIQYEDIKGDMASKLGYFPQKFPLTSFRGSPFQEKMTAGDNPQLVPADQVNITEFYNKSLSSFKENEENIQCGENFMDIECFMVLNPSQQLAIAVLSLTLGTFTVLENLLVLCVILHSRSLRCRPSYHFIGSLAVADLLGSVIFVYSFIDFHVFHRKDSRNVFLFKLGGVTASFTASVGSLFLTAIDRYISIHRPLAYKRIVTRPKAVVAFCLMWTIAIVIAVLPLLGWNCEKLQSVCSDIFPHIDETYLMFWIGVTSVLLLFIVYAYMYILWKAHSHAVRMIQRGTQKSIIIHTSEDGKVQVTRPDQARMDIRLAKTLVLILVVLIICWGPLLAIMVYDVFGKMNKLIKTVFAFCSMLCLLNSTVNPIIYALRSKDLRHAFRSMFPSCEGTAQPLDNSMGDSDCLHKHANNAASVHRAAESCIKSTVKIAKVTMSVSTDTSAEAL

Row | Structure (SMILES) | EC50 (CB1 [1]) [nM] | EC50 (rat CB1 receptor) [nM] | EC50 (mouse CB2 receptor) [nM] | β-arrestin efficacy, mouse CB2 (mouse CB2 receptor) [%] | EC50 (mouse CB1 receptor) [nM] | receptor internalization, human CB2 (words) (hCB2 [2]) | EC50 (hCB2 [6]) [nM] | β-arrestin efficacy compared to CP55,940, human CB2 (hCB2 [6]) [%] | EC50 (rat CB2 receptor [7]) [nM] | β-arrestin efficacy compared to CP55,940, rat CB2 (rat CB2 receptor [7]) [%] | also measured
1 | CC(C)(C)NC(=O)c1nn(-c2ccc(F)cc2F)c2c1C1CCC2C1 (stereo not drawn) [GRC 10693] | 384 | 290 | 0.8 | 96 | 750 | high efficacy | 1.2 | 100 | 2 | 89 | β-arrestin efficacy, human CB1 (CB1 [1]; relative to reference agonist): 57%; β-arrestin efficacy, rat CB1 (rat CB1 receptor; relative to reference agonist): 57%; β-arrestin efficacy, mouse CB1 (mouse CB1 receptor; relative to reference agonist): 75%; receptor internalization, rat CB2 (rat CB2 receptor [3]): high efficacy; selectivity for the human CB2 receptor versus the human CB1 receptor [4]: 320 fold; selectivity compared to the CB1 receptor using cAMP assays (hCB2 [5]): greater than 4700 fold; IC50 (hCB2 [5]; read-out: functional IC50 for the human CB2 receptor): 2.1 nM
2 | Cc1nc(N2CCN(C)CC2)c2nc(-c3ccccc3Cl)n(C3CCOCC3)c2n1 [LY2828360] | – | – | – | – | – | – | – | 41 | – | – | IC50 (mouse CB2 receptor; antagonist activity, read-out: β-arrestin potency, mouse CB2 (* indicates antagonist activity)): 56 nM; IC50 (mouse CB1 receptor; antagonist activity, read-out: β-arrestin potency, mouse CB1 (* indicates antagonist activity)): 1000 nM; GTPγS35 stimulation in vitro efficacy, hCB2 (hCB2 [8]): 87% and 87 ± 2%; GTPγS35 stimulation efficacy, hCB1 (CB1 [9]): 15 ± 7% at 100,000 nM; agonist activity in β-arrestin assay, rat CB2 (rat CB2 receptor [7]; compared to CP55,940): absence of agonist activity
3 | O=C(NCC1CCOCC1)c1cnc(Nc2ccc(Cl)cc2Cl)nc1C(F)(F)F [GW842166X] | > 10000 | > 10000 | 235 | 108 | > 10000 | weak receptor internalization | 840 | 99 | 427 | 97 | total granule intensity compared to CP55,940, human CB2 receptor internalization (hCB2 [2]): 53%; receptor internalization, human CB2 (words) (hCB2 [2]; listed as GW842166): weak CB2 receptor internalization; in vivo efficacy over time in the osteoarthritis pain model ([10]; oral dosing): limited efficacy; effect of CB1 antagonist on in vivo efficacy [10]: blocked by CB1 antagonists; effect of CB1 antagonist on in vivo efficacy ([10]; listed as GW842166): blocked by a CB1 antagonist; CB1 activity (CB1 [11]): absence of CB1 activity
